From patent US20220323427A1, “SOMATOSTATIN RECEPTOR TYPE 5 AGONIST FOR THE TREATMENT OF HYPERINSULINISM” (Crinetics Pharmaceuticals, Inc., priority 2021, published 2022)

What was measured:
[1] = test system: sulfonylurea-induced hyperinsulinism; experiment: Sulfonylurea (glibenclamide) challenge and euglycemic clamp, MAD; format: in vivo, human
Protocol: MAD/Part 2: multiple ascending dose, randomized, placebo-controlled, double-blind; up to 5 cohorts, n=9/cohort; subjects in MAD will receive Compound 1 or the placebo. Subjects will undergo a mixed meal tolerance test (MMTT) and an SU challenge and euglycemic clamp procedure. The doses will not exceed the doses in the SAD. Doses will escalate from 30 mg to 120 mg.
In SAD 1b and the MAD, subjects will undergo an SU challenge in the setting of a euglycemic clamp procedure. Sulfonylurea drugs act to close KATP channel of the pancreatic β-cell, stimulating endogenous insulin secretion. Given that the majority (50%) of patients with congenital HI harbor a mutation in the KATP channel, the SU challenge models this genetic form of HI in healthy volunteers. Intravenous glucose will be used during the euglycemic clamp to maintain glucose within a target range. In the presence of an SU, the amount of intravenous (IV) glucose required to maintain a target glucose will increase, similar to patients with congenital HI who require supplemental glucose. The SU challenge cohorts in SAD 1b will assess the ability of a single dose of Compound 1 to reduce or prevent SU-induced glucose lowering as measured by reduced IV glucose infusion (reduced glucose “support”). IV glucose requirements will be assessed as a glucose infusion rate, or GIR (mg dextrose/kg body weight/minute). In the MAD, the durability of the Compound 1 effect will be measured by assessing the GIR required to maintain euglycemia during the SU challenge after 10 days of Compound 1 dosing compared to the baseline SU challenge in the absence (predose) of Compound 1.
Glibenclamide will be used for SU-induced hypoglycemia. Based on the available dose-response data in healthy volunteers, 5 mg of glibenclamide will be orally administered to healthy volunteers in selected single- and multi-dose cohorts. The risk of hypoglycemia due to overdose is negligible because continuous glucose monitoring by a clamp device will be performed for each subject and IV infusion of glucose will be provided to maintain each subject's baseline glucose levels.
The euglycemic glucose clamp will be performed by means of a glucose clamp device (ClampArt®; Profil Institut für Stoffwechselforschung, Neuss, Germany). The subject will be connected to the clamp device that will monitor the subject's PG continuously. The device will calculate aggregated PG values every minute. Based on these values, GIR will be calculated every minute using the algorithm implemented into the device and glucose will be administered automatically by the device to keep the PG concentration of the subject constant at a pre-determined target level. Approximately 2 mL of blood per hour will be sampled for glucose monitoring by ClampArt®/the clamp device. […]

[2] = SAD study pharmacokinetics; format: in vivo, human
Source text: This Phase 1, first-in-human, double-blind, randomized, placebo-controlled study will evaluate the safety of Compound 1 in healthy volunteers as well as the relationship between exposure and key pharmacodynamic (PD) parameters. The study will initiate with a single ascending dose (SAD) phase followed by a multiple ascending dose (MAD) phase. Food effect will also be evaluated in subset of subjects in the SAD phase. Results will be used to inform endpoints and other parameters in later studies in patients with congenital HI.
SAD 1a/Part 1a: ascending single dose, randomized, placebo-controlled, double-blind; up to 10 cohorts, n=8/cohort; subjects in SAD 1a will undergo an IVGTT. Doses will escalate from 0.5 mg to 120 mg.
SAD 1c/Part 1c: single dose, 1-arm crossover food effect investigation; 1 cohort, n=6; SAD 1c will not be placebo-controlled or blinded. The dose is 120 mg.
In SAD 1c, subjects will participate in a 1-arm crossover investigation to evaluate the effect of a high-fat meal on Compound 1 absorption.

[3] = after 10 days of 30, 60 or 120 mg QD

## C[C@H](NC(=O)c1cnc(C#N)c(-c2cc(F)cc(F)c2)c1N1CC[C@H](N)C1)C(F)(F)F [Compound 1, 4-[(3S)-3-aminopyrrolidin-1-yl]-6-cyano-5-(3,5-difluorophenyl)-N-[(2S)-1,1,1-trifluoropropan-2-yl]pyridine-3-carboxamide]
[1]; 120 mg cohort, Day 10
  Plasma glucose during sulfonylurea challenge: mild elevation of plasma glucose
[1]; [3]
  Effect on sulfonylurea-induced hyperinsulinism: reversed sulfonylurea-induced hyperinsulinism
  Need for IV glucose support (glucose infusion rate): eliminating the need for IV glucose support
[1]; day 10, all cohorts
  Insulin and C-peptide levels during sulfonylurea challenge: suppressed
[2]; 120 mg within 30 minutes of a high fat breakfast
  Food effect on exposure: significant reduction in exposure
[2]; human, in vivo, single oral dose, at efficacious doses
  Tmax: 1 to 2 h
[2]; human, in vivo, single oral dose, healthy volunteers
  half-life: ~40 h
[2]; single oral doses 0.5 to 120 mg
  Oral bioavailability and dose proportionality: oral bioavailability with dose-proportional exposure
